Experimental data: US11807625B2, “Capsid inhibitors for the prevention of HIV” (Gilead Sciences, Inc., priority 2019, dated 2023)

Tests used:
SHIV-162P3 = assay: 7-day antiviral assay (p24 ELISA endpoint) in rhesus PBMCs infected with SHIV-162P3; type: cell-based
Experimental: The mean 95% effective concentration (EC95) of 1.91±0.16 nM for a compound of Formula (Ib) (“Compound Ib”) was determined using a 7-day antiviral assay (p24 ELISA endpoint) in rhesus peripheral blood mononuclear cells (PBMCs) infected with SHIV-162P3. A competitive equilibrium dialysis assay was used to quantify rhesus plasma protein binding to Compound Ib, resulting in an inhibitory quotient (IQ) equal to Compound Ib plasma concentrations divided by a mean rhesus plasma protein-binding-adjusted EC95 (paEC95) value of 30.2±2.5 nM.

SHIV = assay: PrEP efficacy in rhesus repeat intrarectal SHIV challenge model, plasma viral load by qRT-PCR; type: in vivo, rhesus macaques; details: for Plasma SHIV: rhesus, individual animals
Experimental: The PrEP efficacy a compound of Formula (Ib) in rhesus was evaluated using a repeat intrarectal (IR) challenge model.
This study also established a correlation between exposure and protection using a single high-dose administration of a compound of Formula (Ib) vs. placebo, followed by multiple weekly IR challenges until infection occured. In this study, multiple challenges overlapped with clinically-relevant drug levels. The supratherapeutic IQs (inhibitory quotients) were assessed to maximize protection and achieve proof-of-concept in case rectal tissue levels were much lower than in plasma. Lower doses of a compound of Formula (Ib), or a pharmaceutically acceptable salt thereof, were assessed to capture more challenges at clinically relevant exposures, reducing the number of IR challenges, and facilitating a drug washout phase. The washout phase lasted for at least 20 weeks. In some embodiments, the washout phase lasted for 20-25 weeks. The washout phase of these studies was important to enable the administered drug concentrations to decline sufficiently below those that were expected to be clinically suppressive in order to confirm that animals that remained aviremic in the study did so because they were protected from infection as opposed to being infected following one or more of the viral challenges but remaining suppressed by prolonged therapeutic concentrations of the long-acting drug in plasma and/or tissue compartments.
FIG. 3 is a schematic of the study using a compound of Formula (Ib) in adult rhesus macaques (1:1 male/female ratio). Eight animals per group were treated with a single dose of placebo control, 150 mg/kg of a compound of Formula (Ib) (“Compound 1b”) or 300 mg/kg of a compound of Formula (Ib) (“Compound 1b”) on week 0 and allowed to wash out over time. All animals were challenged intrarectally with SHIV weekly beginning on week 1 until detectable viremia or up to a maximum of 15 challenges. SHIV challenge titer was increased over time from 10 TCID50 to 100 TCID50 through week 15 as depicted. Animal SHIV infection rate was assessed by weekly plasma viral load monitoring by qRT-PCR through study week 20. The protective efficacy of a compound of Formula (Ib) (“Compound 1b”) was established by comparing to infection rate observed in the placebo control group using the Cox proportional hazards model analysis.
Viral infection was scored one week after each SHIV challenge using a quantitative RT-PCR assay. Infected animals were defined as having a viral load >200 copies per mL plasma and the corresponding plasma viral load values are bolded.
Viral load measurements details: RNA was extracted from plasma using a QIAcube HT and the QIAcube 96 Cador pathogen HT kit (Qiagen). Gag RNA standards were generated using the AmpliCapMax™ T7 High Yield Message Maker Kit (Cell Script) and purified with RNA clean and concentrator kit (Zymo Research). Log dilutions of RNA were included with each assay run. Reverse transcription of both standards and samples was performed using Superscript III VILO (Invitrogen). Quantitative PCR was performed using the Quantstudio 6 Flex system with TaqMan™ Fast Advanced Master Mix (Applied Biosystems). Primer sequences were F-[…] (SEQ ID NO. 1) and R-[…] (SEQ ID NO. 2). The probe sequence was […] (SEQ ID NO. 3), and probe was labeled with FAM and BHQ (Biosearch Technologies). Viral loads were calculated as gag copies per mL.

CC(C)(C#Cc1ccc(-c2ccc(Cl)c3c(NS(=O)(=O)C4CC4)nn(CC(F)F)c23)c([C@H](Cc2cc(F)cc(F)c2)NC(=O)Cn2nc(C(F)F)c3c2C(F)(F)[C@@H]2C[C@H]32)n1)S(C)(=O)=O [Compound Ib, N—((S)-1-(3-(4-chloro-3-(cyclopropanesulfonamido)-1-(2,2-difluoroethyl)-1H-indazol-7-yl)-6-(3-methyl-3-(methylsulfonyl)but-1-yn-1-yl)pyridin-2-yl)-2-(3,5-difluorophenyl)ethyl)-2-((3b S,4aR)-3-(difluoromethyl)-5,5-difluoro-3b,4,4a,5-tetrahydro-1H-cyclopropa[3,4]cyclopenta[1,2-c]pyrazol-1-yl)acetamide]
mean 95% effective concentration (EC95) (SHIV-162P3): 1.91 ± 0.16 nM
Plasma SHIV (SHIV; 150 mg/kg SC day 0, study week 1, intrarectal SHIV dose 10 x TCID50): <200 copies/mL
Plasma SHIV (SHIV; 150 mg/kg SC day 0, study week 2, intrarectal SHIV dose 10 x TCID50): <200 copies/mL
Plasma SHIV (SHIV; 150 mg/kg SC day 0, study week 3, intrarectal SHIV dose 10 x TCID50): <200 copies/mL
Plasma SHIV (SHIV; 150 mg/kg SC day 0, study week 4, intrarectal SHIV dose 10 x TCID50): <200 copies/mL
Plasma SHIV (SHIV; 150 mg/kg SC day 0, study week 5, intrarectal SHIV dose 10 x TCID50): <200 copies/mL
Plasma SHIV (SHIV; 150 mg/kg SC day 0, study week 6, intrarectal SHIV dose 10 x TCID50): <200 copies/mL
Plasma SHIV (SHIV; 150 mg/kg SC day 0, study week 7, intrarectal SHIV dose 10 x TCID50): <200 copies/mL
Plasma SHIV (SHIV; 150 mg/kg SC day 0, study week 8, intrarectal SHIV dose 10 x TCID50): <200 copies/mL
Plasma SHIV (SHIV; 150 mg/kg SC day 0, study week 9, intrarectal SHIV dose 33 x TCID50): <200 copies/mL
Plasma SHIV (SHIV; 150 mg/kg SC day 0, study week 10, intrarectal SHIV dose 33 x TCID50): <200 copies/mL
Plasma SHIV (SHIV; 300 mg/kg SC day 0, study week 1, intrarectal SHIV dose 10 x TCID50): <200 copies/mL
Plasma SHIV (SHIV; 300 mg/kg SC day 0, study week 2, intrarectal SHIV dose 10 x TCID50): <200 copies/mL
Plasma SHIV (SHIV; 300 mg/kg SC day 0, study week 3, intrarectal SHIV dose 10 x TCID50): <200 copies/mL
Plasma SHIV (SHIV; 300 mg/kg SC day 0, study week 4, intrarectal SHIV dose 10 x TCID50): <200 copies/mL
Plasma SHIV (SHIV; 300 mg/kg SC day 0, study week 5, intrarectal SHIV dose 10 x TCID50): <200 copies/mL
Plasma SHIV (SHIV; 300 mg/kg SC day 0, study week 6, intrarectal SHIV dose 10 x TCID50): <200 copies/mL
Plasma SHIV (SHIV; 300 mg/kg SC day 0, study week 7, intrarectal SHIV dose 10 x TCID50): <200 copies/mL
Plasma SHIV (SHIV; 300 mg/kg SC day 0, study week 8, intrarectal SHIV dose 10 x TCID50): <200 copies/mL
Plasma SHIV (SHIV; 300 mg/kg SC day 0, study week 9, intrarectal SHIV dose 33 x TCID50): <200 copies/mL
Plasma SHIV (SHIV; 300 mg/kg SC day 0, study week 10, intrarectal SHIV dose 33 x TCID50): <200 copies/mL
infection in relation to Compound Ib plasma exposure (SHIV; 150 or 300 mg/kg single SC, weekly intrarectal challenges with escalating SHIV doses, FIGS. 6B, 6C): became infected only after the viral challenges were administered at Compound Ib plasma exposures well below the clinical IQ exposure range of 4 to 9
